Source: article PMC5567267, “Discovery of a potent protein kinase D inhibitor: insights in the binding mode of pyrazolo[3,4-d]pyrimidine analogues” (MedChemComm, 2017)
Read-outs that look alike come from different tables or passages of the source.

Target: T1, PKD2 (Homo sapiens, UniProt Q9BZL6)
T1 construct: made in house; host or cells: HEK293T cells, transient transfection with pDEST27-PRKD2, stimulated with 500 nM PDB before lysis
T1 sequence (Q9BZL6 1-878): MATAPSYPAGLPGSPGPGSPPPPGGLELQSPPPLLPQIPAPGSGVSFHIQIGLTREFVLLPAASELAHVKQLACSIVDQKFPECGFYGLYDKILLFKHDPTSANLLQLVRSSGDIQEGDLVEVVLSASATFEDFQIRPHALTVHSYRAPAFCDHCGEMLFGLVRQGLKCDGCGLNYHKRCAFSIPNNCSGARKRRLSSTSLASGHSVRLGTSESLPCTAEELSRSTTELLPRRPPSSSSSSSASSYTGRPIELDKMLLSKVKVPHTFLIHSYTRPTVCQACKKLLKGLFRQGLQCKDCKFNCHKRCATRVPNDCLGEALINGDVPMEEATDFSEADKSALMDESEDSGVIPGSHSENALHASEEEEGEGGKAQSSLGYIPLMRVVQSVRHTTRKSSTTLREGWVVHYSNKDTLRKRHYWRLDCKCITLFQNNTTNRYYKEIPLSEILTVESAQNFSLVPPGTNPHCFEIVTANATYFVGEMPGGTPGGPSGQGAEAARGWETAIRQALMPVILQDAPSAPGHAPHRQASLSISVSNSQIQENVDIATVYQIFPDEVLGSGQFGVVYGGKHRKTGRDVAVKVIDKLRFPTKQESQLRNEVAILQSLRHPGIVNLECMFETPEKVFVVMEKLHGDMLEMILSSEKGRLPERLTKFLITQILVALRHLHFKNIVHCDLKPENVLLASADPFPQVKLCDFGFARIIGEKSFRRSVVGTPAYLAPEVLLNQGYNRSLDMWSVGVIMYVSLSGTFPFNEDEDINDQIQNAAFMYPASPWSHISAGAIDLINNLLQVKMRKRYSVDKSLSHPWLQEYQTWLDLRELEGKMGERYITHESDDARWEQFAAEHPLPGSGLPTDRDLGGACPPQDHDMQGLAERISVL
Experiment: PKD2 screening assay (in vitro radiometric kinase assay)
Format: biochemical
Details: for remaining activity at 1 µM: 10 min; for IC50: radiometric
Procedure: All 35 described analogues were characterized in vitro via an initial screening at 1 μM against PKD2. […]
scanning of a coomassie stained SDS-polyacrylamide gel.
An in vitro radiometric assay was used to determine the inhibition of PKD in presence of various compounds at a […]
determinations. Reactions were carried out in 40µl of a mixture containing 50mM Tris-HCl pH 7.4, 10mM MgCl2, 50ng of PDB stimulated GST-PKD2, 4µg/ml Syntide-2 (Sigma Aldrich, St. Louis, USA), 25µM ATP and 2µCi [γ-32P]ATP (Perkin-Elmer, Massachusetts, USA). After 10’ the reaction was stopped by spotting 30µl of the reaction on whatmann P81 filter paper. The filter papers were washed 3 times in 0.5% phosphoric acid, followed by one wash in 100% acetone. Subsequently the papers were air-dried and counted using the Tri-Carb 2810 TR scintillation counter (Perkin-Elmer). Percentage of PKD2 inhibition was determined relative to a condition where no inhibitor was added (0,1% dimethylsulfoxide (DMSO)). Graphs were plotted and IC50 values were determined using the GraphPad software package (Prism). […]

[1] = ESI table, initial screening of all analogues at 1µM, read-out: % PKD2 activity remaining (1µM) (average ±SD)
[2] = compound at 1 μM, PDB stimulated GST-PKD2, Syntide-2, 25µM ATP, relative to no inhibitor (DMSO), read-out: % PKD 2 activity remaining (1 μM) (Average ± SD)
[3] = PDB stimulated GST-PKD2, Syntide-2, 25µM ATP

Compound | remaining activity at 1 µM [1] [%] | remaining activity at 1 µM [2] [%] | IC50 [3] [nM] | % PKD2 activity remaining (1µM) (average ±SD) (ESI table, initial screening of all analogues at 1µM) [%]
CC(C)(C)n1nc(CCCc2ccccc2)c2c(N)ncnc21 [Compound 7i, 1-tert-butyl-3-(3-phenylpropyl)-1H-pyrazolo[3,4-d]pyrimidin-4-amine] | 101 ± 8.3 | 101 ± 8.3 | > 50000 | 
CC(C)(C)n1nc(CCCCc2ccccc2)c2c(N)ncnc21 [Compound 7k, 1-tert-butyl-3-(4-phenylbutyl)-1H-pyrazolo[3,4-d]pyrimidin-4-amine] | 92.8 ± 5.8 | 93 ± 5.8 | > 50000 | 
CCCCNc1nc(N)c2c(-c3ccc(F)cc3)nn(C(C)(C)C)c2n1 [Compound 13c, N6-butyl-1-tert-butyl-3-(4-fluorophenyl)-1H-pyrazolo[3,4-d]pyrimidine-4,6-diamine] | 69 ± 8.3 |  |  | 
CC(C)(C)n1nc(-c2ccccc2)c2c(N)ncnc21 [Compound 6a, 1-tert-butyl-3-phenyl-1H-pyrazolo[3,4-d]pyrimidin-4-amine] | 77 ± 2.9 | 76 ± 2.9 | 9490 | 
CC(C)(C)n1nc(Cc2ccccc2)c2c(N)ncnc21 [Compound 7a, 3-benzyl-1-tert-butyl-1H-pyrazolo[3,4-d]pyrimidin-4-amine] | 35 ± 1.3 | 35 ± 1.3 | 449 | 
CC(C)(C)n1nc(Cc2ccccc2Cl)c2c(N)ncnc21 [Compound 7b, 1-tert-butyl-3-(2-chlorobenzyl)-1H-pyrazolo[3,4-d]pyrimidin-4-amine] | 41 ± 2.6 | 41 ± 2.6 | 451 | 
CC(C)(C)n1nc(-c2cccc3ccccc23)c2c(N)ncnc21 [Compound 6i, 1-tert-butyl-3-(1-naphthyl)-1H-pyrazolo[3,4-d]pyrimidin-4-amine] | 34 ± 0.4 | 34 ± 0.4 | 403 | 
CC(C)(C)n1nc(-c2ccccc2F)c2c(N)ncnc21 [Compound 6d, 1-tert-butyl-3-(2-fluorophenyl)-1H-pyrazolo[3,4-d]pyrimidin-4-amine] | 83 ± 9.4 |  |  | 
CC(C)(C)c1ccc(-c2nn(C(C)(C)C)c3ncnc(N)c23)cc1 [Compound 6k, 1-(tert-butyl)-3-(4-(tert-butyl)phenyl)-1H-pyrazolo[3,4-d]pyrimidin-4-amine] | 93 ± 1.5 |  |  | 
CC(C)(C)n1nc(Cc2cccc(Cl)c2Cl)c2c(N)ncnc21 [Compound 7g, 1-tert-butyl-3-(2,3-dichlorobenzyl)-1H-pyrazolo[3,4-d]pyrimidin-4-amine] | 90 ± 5.1 |  |  | 
CCCCNc1nc(N)c2c(-c3ccc(OC)cc3)nn(C(C)(C)C)c2n1 [Compound 13d, N6-butyl-1-tert-butyl-3-(4-methoxyphenyl)-1H-pyrazolo[3,4-d]pyrimidine-4,6-diamine] | 80 ± 2.5 |  |  | 
CC(C)(C)n1nc(-c2ccc(F)cc2)c2c(N)ncnc21 [Compound 6b, 1-tert-butyl-3-(4-fluorophenyl)-1H-pyrazolo[3,4-d]pyrimidin-4-amine] | 81 ± 4 |  |  | 
Cn1nc(CCCCc2ccccc2)c2c(N)ncnc21 [Compound 7l, 1-methyl-3-(4-phenylbutyl)-1H-pyrazolo[3,4-d]pyrimidin-4-amine] | 98 ± 6.4 |  |  | 
C=Cc1ccc(-c2nn(C(C)(C)C)c3ncnc(N)c23)cc1 [Compound 6g, 1-(tert-butyl)-3-(4-vinylphenyl)-1H-pyrazolo[3,4-d]pyrimidin-4-amine] | 84 ± 9.4 |  |  | 
CC(C)(C)n1nc(Cc2ccc(Cl)c(Cl)c2)c2c(N)ncnc21 [Compound 7h, 1-tert-butyl-3-(3,4-dichlorobenzyl)-1H-pyrazolo[3,4-d]pyrimidin-4-amine] | 78 ± 3.3 |  |  | 
CC(C)(C)n1nc(Cc2ccccc2Br)c2c(N)ncnc21 [Compound 7e, 3-(2-bromobenzyl)-1-tert-butyl-1H-pyrazolo[3,4-d]pyrimidin-4-amine] | 43 ± 6.6 | 43 ± 6.6 | 535 | 

Compound | remaining activity at 1 µM [1] [%] | remaining activity at 1 µM [2] [%] | IC50 [3] [nM] | % PKD2 activity remaining (1µM) (average ±SD) (ESI table, initial screening of all analogues at 1µM) [%]
Cn1nc(Cc2cccc(Cl)c2)c2c(N)ncnc21 [Compound 7d, 3-(3-chlorobenzyl)-1-methyl-1H-pyrazolo[3,4-d]pyrimidin-4-amine] | 83 ± 6.4 | 83 ± 6.4 | 4840 | 
CCCCNc1nc(N)c2c(-c3ccc4ccccc4c3)nn(C(C)(C)C)c2n1 [Compound 13g, N6-butyl-1-tert-butyl-3-(2-naphthyl)-1H-pyrazolo[3,4-d]pyrimidine-4,6-diamine] | 76 ± 2.7 |  |  | 
Cn1nc(Cc2cccc3ccccc23)c2c(N)ncnc21 [Compound 7m, 1-methyl-3-(1-naphthylmethyl)-1H-pyrazolo[3,4-d]pyrimidin-4-amine] | 64 ± 3.9 | 64 ± 3.9 | 4660 | 
2-acetyl-5-(4-amino-1-(tert-butyl)-1H-pyrazolo[3,4-d]pyrimidin-3-yl)benzaldehyde [Compound 6f] |  |  |  | 81 ±4.5
CCCCNc1nc(N)c2c(-c3ccccc3)nn(C(C)(C)C)c2n1 [Compound 13a, N6-butyl-1-tert-butyl-3-phenyl-1H-pyrazolo[3,4-d]pyrimidine-4,6-diamine] | 77 ± 5.1 |  |  | 
CC(C)(C)n1nc(-c2ccccc2Cl)c2c(N)ncnc21 [Compound 6c, 1-tert-butyl-3-(2-chlorophenyl)-1H-pyrazolo[3,4-d]pyrimidin-4-amine] | 73 ± 2.4 |  |  | 
CC(C)(C)n1nc(-c2ccc(C#N)cc2)c2c(N)ncnc21 [Compound 6j, 4-(4-amino-1-(tert-butyl)-1H-pyrazolo[3,4-d]pyrimidin-3-yl)benzonitrile] | 97 ± 0.8 |  |  | 
CCCCNc1nc(N)c2c(-c3cccc(C(F)(F)F)c3)nn(C(C)(C)C)c2n1 [Compound 13f, N6-butyl-1-tert-butyl-3-[3-(trifluoromethyl)phenyl]-1H-pyrazolo[3,4-d]pyrimidine-4,6-diamine] | 91 ± 8.5 |  |  | 
CC(C)(C)n1nc(-c2ccc3ccccc3c2)c2c(N)ncnc21 [Compound 6h, 1-tert-butyl-3-(2-naphthyl)-1H-pyrazolo[3,4-d]pyrimidin-4-amine] | 59 ± 5 |  |  | 
CC(C)(C)n1nc(Cc2cccc(Br)c2)c2c(N)ncnc21 [Compound 7f, 3-(3-bromobenzyl)-1-tert-butyl-1H-pyrazolo[3,4-d]pyrimidin-4-amine] | 59 ± 3.3 |  |  | 
CC(C)(C)n1nc(Cc2cccc(Cl)c2)c2c(N)ncnc21 [Compound 7c, 1-tert-butyl-3-(3-chlorobenzyl)-1H-pyrazolo[3,4-d]pyrimidin-4-amine] | 56 ± 2.4 | 55 ± 2.4 |  | 
COc1ccc(-c2nn(C(C)(C)C)c3ncnc(N)c23)cc1 [Compound 6e, 1-tert-butyl-3-(4-methoxyphenyl)-1H-pyrazolo[3,4-d]pyrimidin-4-amine] | 80 ± 7 |  |  | 
CCCCNc1nc(N)c2c(-c3ccsc3)nn(C(C)(C)C)c2n1 [Compound 13e, N6-butyl-1-tert-butyl-3-(3-thienyl)-1H-pyrazolo[3,4-d]pyrimidine-4,6-diamine] | 82 ± 7.2 |  |  | 
Cn1nc(CCCc2ccccc2)c2c(N)ncnc21 [Compound 7j, 1-methyl-3-(3-phenylpropyl)-1H-pyrazolo[3,4-d]pyrimidin-4-amine] | 101 ± 3.3 |  |  | 
CCCCNc1nc(N)c2c(-c3cccc(Cl)c3)nn(C(C)(C)C)c2n1 [Compound 13b, N6-butyl-1-tert-butyl-3-(3-chlorophenyl)-1H-pyrazolo[3,4-d]pyrimidine-4,6-diamine] | 81 ± 6.6 |  |  | 
